Consider 19 molecules from US11384060B2, “Amide compounds and use thereof” (ALPHALA CO., LTD., priority 2017, dated 2022).

One test concerns the target T1, glucagon receptor (GCGR) (Homo sapiens, UniProt P47871).
T1 construct: expressed in transfected cells; host or cells: CHO-K1 cells overexpressing GCGR (membrane fractions)
The test is described as follows: I125-glucagon binding assay (competition, GCGR membrane fractions). The gist of the method: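 Membranes from CHO-K1 cells overexpressing GCGR, 7.5 μg/well in 50 mM Tris pH 7.4 with 0.5% BSA, were preincubated 5 min with serially diluted compounds, then given 0.0625 nM final I^125-glucagon for 30 min at 25° C. Bound label was filtered on PEI-coated GF/B and counted; IC50 by non-linear regression.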

Test [1] concerns the target T2, glucagon receptor (GCGR) overexpressed CHO-K1 cells or human primary hepatocytes (Homo sapiens, UniProt P47871).
T2 construct: expressed in transfected cells; host or cells: GCGR overexpressed CHO-K1 cells or human primary hepatocytes (endogenous receptor)
The test is described as follows: Glucagon cAMP inhibition assay (Cisbio cAMP Dynamic 2 HTRF). The class given is cell-based. Put shortly: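 GCGR-overexpressing CHO-K1 cells or human primary hepatocytes in HBSS with 0.1% BSA and 800 nM IBMX, pre-incubated 30 min with serially diluted compounds (1% DMSO final), then stimulated 30 min at room temperature with glucagon at its EC50. cAMP measured by HTRF after 60 min lysis; IC50 by non-linear regression.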

[2] abbreviates: competition with I125-glucagon 0.0625 nM, membrane fractions of GCGR overexpressed CHO-K1 cells.
Setting [3] is: inhibition of glucagon (EC50 concentration) induced cAMP production.

Structures are written as SMILES. Like-named read-outs stand apart in the source and are kept apart here.

T1 sequence (P47871 26-477): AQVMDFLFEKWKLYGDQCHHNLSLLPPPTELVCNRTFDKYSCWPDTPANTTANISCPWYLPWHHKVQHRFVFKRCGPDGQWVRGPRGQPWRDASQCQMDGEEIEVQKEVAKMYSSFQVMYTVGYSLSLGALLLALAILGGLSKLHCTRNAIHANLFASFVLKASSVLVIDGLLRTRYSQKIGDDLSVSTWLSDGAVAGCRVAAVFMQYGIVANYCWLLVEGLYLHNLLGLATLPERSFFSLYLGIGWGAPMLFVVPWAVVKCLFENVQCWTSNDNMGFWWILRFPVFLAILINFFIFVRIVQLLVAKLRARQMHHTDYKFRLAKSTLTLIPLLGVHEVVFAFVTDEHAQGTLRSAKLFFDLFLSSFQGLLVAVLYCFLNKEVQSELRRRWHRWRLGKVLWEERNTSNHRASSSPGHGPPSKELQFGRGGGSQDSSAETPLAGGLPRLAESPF
T2 sequence (P47871 26-477): as above

On glucagon receptor (GCGR) (setting [2]), `COc1cc(OC[C@@H](Nc2ccc(C(=O)NCCC(=O)O)cc2)C(C)C)ccc1-c1ccc(C(F)(F)F)cc1` [Compound 13-10, (S)-3-(4-((1-((2-methoxy-4′-(trifluoromethyl)-[1,1′-biphenyl]-4-yl)oxy)-3-methylbutan-2-yl)amino)benzamido)propanoic Acid] registered a half-maximal inhibitory concentration (IC50) of 92 nM. In addition, in test [1] (setting [3]), the “IC50 cAMP” value is on record as 246 nM.

In turn, `CCCC[C@@H](COc1cc(C)c(-c2cc3ccccc3o2)c(C)c1)Nc1ccc(C(=O)NCc2nnn[nH]2)cc1` [Compound 2-13, (S)—N-((1H-tetrazol-5-yl)methyl)-4-((1-(4-(benzofuran-2-yl)-3,5-dimethylphenoxy)hexan-2-yl)amino)benzamide] came in with a 50% inhibitory concentration (IC50) on glucagon receptor (GCGR) (setting [2]) of 167 nM. Moreover, the “IC50 cAMP” value in test [1] (setting [3]) came to 148.5 nM.

The molecule `CC(C)[C@H](COc1ccc(-c2ccc(C(F)(F)F)cc2Cl)cc1)Nc1ccc(C(=O)NCCC(=O)O)cc1` [Compound 1-35] yielded a half-maximal inhibitory concentration (IC50) at glucagon receptor (GCGR) (setting [2]) of 145 nM. In addition, in test [1] (setting [3]), the “IC50 cAMP” value was found to be 209.3 nM.

As to `CC(C)[C@@H](COc1ccc(-c2ccc(C(F)(F)F)cc2)nc1)Nc1ccc(C(=O)NCCC(=O)O)cc1` [Compound 10-1, (S)-3-(4-((3-methyl-1-((6-(4-(trifluoromethyl)phenyl)pyridin-3-yl)oxy)butan-2-yl)amino)benzamido)propanoic Acid], the half-inhibitory concentration (IC50) on glucagon receptor (GCGR) (setting [2]) came out at 531 nM. For the same molecule, in test [1] (setting [3]), the “IC50 cAMP” value turned out to be 1959 nM.

`CC(C)[C@@H](COc1nnc(-c2ccc(C(C)(C)C)cc2)o1)Nc1ccc(C(=O)NCCC(=O)O)cc1` [Compound 22-16, (S)-3-(4-((1-((5-(4-(tert-butyl)phenyl)-1,3,4-oxadiazol-2-yl)oxy)-3-methylbutan-2-yl)amino)benzamido)propanoic Acid] gave a concentration for half-maximal inhibition (IC50) on glucagon receptor (GCGR) of more than 30000 nM. For the same molecule, in test [1], the “IC50 cAMP” value is given as more than 30000 nM.

On glucagon receptor (GCGR), `CCOC(=O)CCNC(=O)c1ccc(N[C@@H](Cc2ccccc2)C(=O)Nc2ccc(-c3cc4ccccc4o3)cc2)cc1` [Compound 23-7, Ethyl (S)-3-(4-((1-((4-(benzofuran-2-yl)phenyl)amino)-1-oxo-3-phenylpropan-2-yl)amino)benzamido)propanoate] showed an IC50 of 4270 nM. The “IC50 cAMP” value in test [1] was determined as 64.3 nM.

Regarding `CCCC[C@@H](COc1ccc(-c2ccc(C(F)(F)F)cc2F)cc1)Nc1ccc(C(=O)NCCC(=O)O)cc1` [Compound 1-27, (S)-3-(4-((1-((2′-fluoro-4′-(trifluoromethyl)-[1,1′-biphenyl]-4-yl)oxy)hexan-2-yl)amino)benzamido)propanoic Acid], at glucagon receptor (GCGR) (setting [2]), the half-maximal inhibitory concentration (IC50) stood at 108 nM. In addition, in test [1] (setting [3]), the “IC50 cAMP” value is 96.5 nM.

At glucagon receptor (GCGR), `CCCC[C@@H](COc1nnc(-c2ccc(C(F)(F)F)cc2F)o1)Nc1ccc(C(=O)NCCC(=O)O)cc1` [Compound 22-3, (S)-3-(4-((1-((5-(2-fluoro-4-(trifluoromethyl)phenyl)-1,3,4-oxadiazol-2-yl)oxy)hexan-2-yl)amino)benzamido)propanoic Acid] showed an IC50 of 13600 nM. Also, in test [1], the “IC50 cAMP” value is more than 30000 nM.

In turn, `O=C(O)CCNC(=O)c1ccc(N[C@H](COc2ccc(-c3cc4ccccc4o3)cn2)c2ccc(-c3ccc(C(F)(F)F)cc3)cc2)cc1` [Compound 15-29, (S)-3-(4-((2-((5-(benzofuran-2-yl)pyridin-2-yl)oxy)-1-(4′-(trifluoromethyl)-[1,1′-biphenyl]-4-yl)ethyl)amino)benzamido)propanoic Acid] showed a half-maximal inhibitory concentration (IC50) on glucagon receptor (GCGR) of 20 nM. Moreover, the “IC50 cAMP” value in test [1] came out at 107 nM.

`CC(C)(C)[C@@H](COc1ccc(-c2ccc(C(F)(F)F)cc2F)c(Cl)c1)Nc1ccc(C(=O)NCCC(=O)O)cc1` [Compound 3-24, (S)-3-(4-((1-((2-chloro-2′-fluoro-4′-(trifluoromethyl)-[1,1′-biphenyl]-4-yl)oxy)-3,3-dimethylbutan-2-yl)amino)benzamido)propanoic Acid] returned an IC50 at glucagon receptor (GCGR) (setting [2]) of 53 nM. Moreover, in test [1] (setting [3]), the “IC50 cAMP” value was 80 nM.

Regarding `CCOC(=O)CCNC(=O)c1ccc(N[C@@H](Cc2ccc(F)cc2)C(=O)Nc2ccc(-c3cc4ccccc4o3)cc2)cc1` [Compound 23-9, Ethyl (S)-3-(4-((1-((4-(benzofuran-2-yl)phenyl)amino)-3-(4-fluorophenyl)-1-oxopropan-2-yl)amino)benzamido)propanoate], the 50% inhibitory concentration (IC50) at glucagon receptor (GCGR) is 1940 nM. In addition, the “IC50 cAMP” value in test [1] worked out at 2600 nM.

For `CCCOC[C@H](Cc1ccc(-c2cccc(OC(F)(F)F)c2)cc1)Nc1ccc(C(=O)NCCC(=O)O)cc1` [Compound 19-25, (S)-3-(4-((1-propoxy-3-(3′-(trifluoromethoxy)-[1,1′-biphenyl]-4-yl)propan-2-yl)amino)benzamido)propanoic Acid], at glucagon receptor (GCGR), the half-inhibitory concentration (IC50) was 1280 nM. The “IC50 cAMP” value in test [1] is 1513 nM.

Regarding `CC(C)[C@@H](COc1ccc(-c2ccc(C(C)(C)C)cc2)nn1)Nc1ccc(C(=O)NCCC(=O)O)cc1` [Compound 17-12, (S)-3-(4-((1-((6-(4-(tert-buty)phenyl)pyridazin-3-yl)oxy)-3-methylbutan-2-yl)amino)benzamido)propanoic Acid], the IC50 on glucagon receptor (GCGR) (setting [2]) worked out at 20000 nM. In addition, the “IC50 cAMP” value in test [1] (setting [3]) came out at 6494 nM.

`CC[C@H](C)[C@@H](COc1ccc(-c2ccc(C(F)(F)F)cc2F)cn1)Nc1ccc(C(=O)NCCC(=O)O)cc1` [Compound 15-14, 3-(4-(((2S,3S)-1-((5-(2-fluoro-4-(trifluoromethyl)phenyl)pyridin-2-yl)oxy)-3-methylpentan-2-yl)amino)benzamido)propanoic Acid] yielded a half-maximal inhibitory concentration (IC50) at glucagon receptor (GCGR) of 379 nM. The “IC50 cAMP” value in test [1] was 280.6 nM.

In the case of `CCCC[C@@H](COc1ccc(-c2ccc(C(F)(F)F)cc2F)nc1)Nc1ccc(C(=O)NCCC(=O)O)cc1` [Compound 10-8, (S)-3-(4-((1-((6-(2-fluoro-4-(trifluoromethyl)phenyl)pyridin-3-yl)oxy)hexan-2-yl)amino)benzamido)propanoic Acid], the IC50 on glucagon receptor (GCGR) (setting [2]) was determined as 180 nM. The “IC50 cAMP” value in test [1] (setting [3]) came to 344 nM.

On to `CCCC[C@@H](COc1ccc(-c2ccc(C(F)(F)F)cc2)nc1)Nc1ccc(C(=O)NCCC(=O)O)cc1` [Compound 10-9, (S)-3-(4-((1-((6-(4-(trifluoromethyl)phenyl)pyridin-3-yl)oxy)hexan-2-yl)amino)benzamido)propanoic Acid], for which, at glucagon receptor (GCGR) (setting [2]), the IC50 worked out at 127 nM. Also, the “IC50 cAMP” value in test [1] (setting [3]) was determined as 465 nM.

For the molecule `CC(C)[C@@H](COc1ccc(-c2cc3ccccc3o2)nc1)Nc1ccc(C(=O)NCCC(=O)O)cc1` [Compound 10-6, (S)-3-(4-((1-((6-(benzofuran-2-yl)pyridin-3-yl)oxy)-3-methylbutan-2-yl)amino)benzamido)propanoic Acid], the IC50 at glucagon receptor (GCGR) (setting [2]) came to 252 nM. For the same molecule, the “IC50 cAMP” value in test [1] (setting [3]) is on record as 2650 nM.

For the molecule `O=C(O)CCNC(=O)c1ccc(N[C@H](Cc2ccc(-c3cc4ccccc4o3)cc2)C(=O)Nc2cc(F)cc(F)c2)cc1` [Compound 24-24, (R)-3-(4-((3-(4-(benzofuran-2-yl)phenyl)-1-((3,5-difluorophenyl)amino)-1-oxopropan-2-yl)amino)benzamido)propanoic Acid], the IC50 on glucagon receptor (GCGR) came to 1210 nM. In addition, the “IC50 cAMP” value in test [1] is listed as 214 nM.

Turning to `CC[C@H](C)[C@@H](COc1nnc(-c2ccc(C(F)(F)F)cc2Cl)o1)Nc1ccc(C(=O)NCCC(=O)O)cc1` [Compound 22-19], the 50% inhibitory concentration (IC50) at glucagon receptor (GCGR) was more than 30000 nM. In test [1], the “IC50 cAMP” value is on record as more than 30000 nM.
